{"source": "patent US20240343681A1", "about": "“MOLECULES HAVING PESTICIDAL UTILITY AND INTERMEDIATES AND PROCESSES RELATED THERETO” (priority 2021, published 2024)"}
{"tested_on": "Beet Armyworm (Spodoptera exigua, LAPHEG) second instar larva", "experiment": "Bioassay on beet armyworm (BAW), 128-well diet tray assay", "type": "in vivo", "settings": "50 μg/cm^2 on artificial diet, 25° C., five days", "procedure": "Example A: Bioassays on Beet Armyworm (Spodoptera exigua, LAPHEG) (“BAW”) and Cabbage Looper (Trichoplusia ni, TRIPNI) (“CL”)\nBioassays on BAW were conducted using a 128-well diet tray assay. One second instar BAW larva was placed in each well (8 wells total) of the diet tray that had been previously filled with 1 mL of artificial diet to which 50 μg/cm^2 of the test molecule (dissolved in 50 μL of 90:10 acetone-water mixture) had been applied (to each of eight wells) and then allowed to dry. Trays were covered with a clear self-adhesive cover, vented to allow gas exchange, and held at 25° C., 14:10 light-dark for five days. Percent mortality was recorded for the larvae in each well; activity in the eight wells was then averaged."}
{"smiles": "O=C(Nc1cc(NC(=O)[C@H]2[C@H](c3cc(Cl)cc(Cl)c3)C2(Cl)Cl)ccc1Cl)c1nc(C(F)(F)F)cs1", "note": "(racemic) [F36, trans-rac-N-(2-Chloro-5-(2,2-dichloro-3-(3,5-dichlorophenyl)cyclopropane-1-carboxamido)phenyl)-4-(trifluoromethyl)thiazole-2-carboxamide]", "activity against BAW (percent mortality, averaged over eight wells)": "exhibited activity"}
{"smiles": "O=C(Nc1cc(NC(=O)[C@H]2[C@H](c3cc(Cl)cc(Cl)c3)C2(Cl)Cl)ccc1Cl)c1cc(=O)[nH]o1", "note": "(racemic) [F37, trans-rac-N-(2-Chloro-5-(2,2-dichloro-3-(3,5-dichlorophenyl)cyclopropane-1-carboxamido)phenyl)-3-oxo-2,3-dihydroisoxazole-5-carboxamide]", "activity against BAW (percent mortality, averaged over eight wells)": "exhibited activity"}
{"smiles": "O=C(Nc1cc(NC(=O)C2C(c3cc(Cl)cc(Cl)c3)C2(Cl)Cl)ccc1Cl)C1CCCO1", "note": "(racemic) [F38, trans-rac-N-(2-Chloro-5-(2,2-dichloro-3-(3,5-dichlorophenyl)cyclopropane-1-carboxamido)phenyl)tetrahydrofuran-2-carboxamide]", "activity against BAW (percent mortality, averaged over eight wells)": "exhibited activity"}
{"smiles": "CC(Oc1ccccc1)C(=O)Nc1cc(NC(=O)C2C(c3cc(Cl)cc(Cl)c3)C2(Cl)Cl)ccc1Cl", "note": "(racemic) [F41, trans-rac-2,2-Dichloro-N-(4-chloro-3-(2-phenoxypropanamido)phenyl)-3-(3,5-dichlorophenyl)cyclopropane-1-carboxamide]", "activity against BAW (percent mortality, averaged over eight wells)": "exhibited activity"}
{"smiles": "N#CC1(C(=O)Nc2cc(NC(=O)[C@H]3[C@H](c4cc(Cl)cc(Cl)c4)C3(Cl)Cl)ccc2Cl)CC1", "note": "(racemic) [F43, trans-rac-2,2-Dichloro-N-(4-chloro-3-(1-cyanocyclopropane-1-carboxamido)phenyl)-3-(3,5-dichlorophenyl)cyclopropane-1-carboxamide]", "activity against BAW (percent mortality, averaged over eight wells)": "exhibited activity"}
{"smiles": "O=C(Nc1cc(NC(=O)C2C(c3cc(Cl)cc(Cl)c3)C2(Cl)Cl)ccc1Cl)C1CC1(F)F", "note": "(racemic) [F44, trans-rac-2,2-Dichloro-N-(4-chloro-3-(2,2-difluorocyclopropane-1-carboxamido)phenyl)-3-(3,5-dichlorophenyl)cyclopropane-1-carboxamide]", "activity against BAW (percent mortality, averaged over eight wells)": "exhibited activity"}
{"smiles": "C=CCC(=O)Nc1cc(NC(=O)[C@H]2[C@H](c3cc(Cl)cc(Cl)c3)C2(Cl)Cl)ccc1Cl", "note": "(racemic) [F47, trans-rac-N-(3-But-3-enamido-4-chlorophenyl)-2,2-dichloro-3-(3,5-dichlorophenyl)cyclopropane-1-carboxamide]", "activity against BAW (percent mortality, averaged over eight wells)": "exhibited activity"}
{"smiles": "O=C(Cc1c(F)cc(F)cc1F)Nc1cc(NC(=O)[C@H]2[C@H](c3cc(Cl)cc(Cl)c3)C2(Cl)Cl)ccc1Cl", "note": "(racemic) [F49, trans-rac-2,2-Dichloro-N-(4-chloro-3-(2-(2,4,6-trifluorophenyl)acetamido)phenyl)-3-(3,5-dichlorophenyl)cyclopropane-1-carboxamide]", "activity against BAW (percent mortality, averaged over eight wells)": "exhibited activity"}
{"smiles": "CC(=O)NCC(=O)Nc1cc(NC(=O)[C@H]2[C@H](c3cc(Cl)cc(Cl)c3)C2(Cl)Cl)ccc1Cl", "note": "(racemic) [F51, trans-rac-N-(3-(2-Acetamidoacetamido)-4-chlorophenyl)-2,2-dichloro-3-(3,5-dichlorophenyl)cyclopropane-1-carboxamide]", "activity against BAW (percent mortality, averaged over eight wells)": "exhibited activity"}
{"smiles": "O=C(Nc1cc(NC(=O)C2C(c3cc(Cl)cc(Cl)c3)C2(Cl)Cl)ccc1Cl)C1CCCN1CC(F)(F)F", "note": "(racemic) [F52, trans-rac-N-(2-Chloro-5-(2,2-dichloro-3-(3,5-dichlorophenyl)cyclopropane-1-carboxamido)phenyl)-1-(2,2,2-trifluoroethyl)pyrrolidine-2-carboxamide]", "activity against BAW (percent mortality, averaged over eight wells)": "exhibited activity"}
{"smiles": "O=C(Nc1ccc(Cl)c(NC(=O)C(F)(F)C(F)F)c1)[C@H]1[C@H](c2cc(Cl)cc(Cl)c2)C1(Cl)Cl", "note": "(racemic) [F55, trans-rac-2,2-Dichloro-N-(4-chloro-3-(2,2,3,3-tetrafluoropropanamido)phenyl)-3-(3,5-dichlorophenyl)cyclopropane-1-carboxamide]", "activity against BAW (percent mortality, averaged over eight wells)": "exhibited activity"}
{"smiles": "O=C(Nc1ccc(Cl)c(NC(=O)C(F)(F)c2ccccc2)c1)[C@H]1[C@H](c2cc(Cl)cc(Cl)c2)C1(Cl)Cl", "note": "(racemic) [F57, trans-rac-2,2-Dichloro-N-(4-chloro-3-(2,2-difluoro-2-phenylacetamido)phenyl)-3-(3,5-dichlorophenyl)cyclopropane-1-carboxamide]", "activity against BAW (percent mortality, averaged over eight wells)": "exhibited activity"}
{"smiles": "O=C(CN1CCOCC1)Nc1cc(NC(=O)[C@H]2[C@H](c3cc(Cl)cc(Cl)c3)C2(Cl)Cl)ccc1F", "note": "(racemic) [F63, trans-rac-2,2-Dichloro-3-(3,5-dichlorophenyl)-N-(4-fluoro-3-(2-morpholinoacetamido)phenyl)cyclopropane-1-carboxamide]", "activity against BAW (percent mortality, averaged over eight wells)": "exhibited activity"}
{"smiles": "O=C(Nc1cc(NC(=O)[C@H]2[C@H](c3cc(Cl)cc(Cl)c3)C2(Cl)Cl)ccc1Cl)c1ccccc1F", "note": "(racemic) [F65, trans-rac-N-(2-Chloro-5-(2,2-dichloro-3-(3,5-dichlorophenyl)cyclopropane-1-carboxamido)phenyl)-2-fluorobenzamide]", "activity against BAW (percent mortality, averaged over eight wells)": "exhibited activity"}
{"smiles": "O=C(Nc1cc(NC(=O)[C@H]2[C@H](c3cc(Cl)cc(Cl)c3)C2(Cl)Cl)ccc1Cl)c1cccc(F)c1", "note": "(racemic) [F66, trans-rac-N-(2-Chloro-5-(2,2-dichloro-3-(3,5-dichlorophenyl)cyclopropane-1-carboxamido)phenyl)-3-fluorobenzamide]", "activity against BAW (percent mortality, averaged over eight wells)": "exhibited activity"}
{"smiles": "Cc1ccccc1C(=O)Nc1cc(NC(=O)[C@H]2[C@H](c3cc(Cl)cc(Cl)c3)C2(Cl)Cl)ccc1Cl", "note": "(racemic) [F73, trans-rac-N-(2-Chloro-5-(2,2-dichloro-3-(3,5-dichlorophenyl)cyclopropane-1-carboxamido)phenyl)-2-methylbenzamide]", "activity against BAW (percent mortality, averaged over eight wells)": "exhibited activity"}
{"smiles": "Cc1cc(C)cc(C(=O)Nc2cc(NC(=O)[C@H]3[C@H](c4cc(Cl)cc(Cl)c4)C3(Cl)Cl)ccc2Cl)c1", "note": "(racemic) [F76, trans-rac-N-(2-Chloro-5-(2,2-dichloro-3-(3,5-dichlorophenyl)cyclopropane-1-carboxamido)phenyl)-3,5-dimethylbenzamide]", "activity against BAW (percent mortality, averaged over eight wells)": "exhibited activity"}
{"smiles": "O=C(Nc1cc(NC(=O)[C@H]2[C@H](c3cc(Cl)cc(Cl)c3)C2(Cl)Cl)ccc1Cl)c1cccc(C(F)(F)F)c1", "note": "(racemic) [F81, trans-rac-N-(2-Chloro-5-(2,2-dichloro-3-(3,5-dichlorophenyl)cyclopropane-1-carboxamido)phenyl)-3-(trifluoromethyl)benzamide]", "activity against BAW (percent mortality, averaged over eight wells)": "exhibited activity"}
{"smiles": "O=C(Nc1cc(NC(=O)[C@H]2[C@H](c3cc(Cl)cc(Cl)c3)C2(Cl)Cl)ccc1Cl)c1ccccc1", "note": "(racemic) [F87, trans-rac-N-(2-Chloro-5-(2,2-dichloro-3-(3,5-dichlorophenyl)cyclopropane-1-carboxamido)phenyl)benzamide]", "activity against BAW (percent mortality, averaged over eight wells)": "exhibited activity"}
